We go through one compound from article PMC10641818, “Development of First-in-Class Dual Sirt2/HDAC6 Inhibitors as Molecular Tools for Dual Inhibition of Tubulin Deacetylation” (Journal of Medicinal Chemistry, 2023).

In one assay the target is T1, HDAC2 (Homo sapiens, UniProt Q92769).
T1 construct: purchased BPS Bioscience 50052
The assay can be described thus: HDAC2 in vitro deacetylation assay (ZMAL). Format: biochemical. The following applies: mean ± SD.

The target of a further assay is T2, HDAC6 (Homo sapiens, UniProt Q9UBN7).
T2 sequence (Q9UBN7 1-1215): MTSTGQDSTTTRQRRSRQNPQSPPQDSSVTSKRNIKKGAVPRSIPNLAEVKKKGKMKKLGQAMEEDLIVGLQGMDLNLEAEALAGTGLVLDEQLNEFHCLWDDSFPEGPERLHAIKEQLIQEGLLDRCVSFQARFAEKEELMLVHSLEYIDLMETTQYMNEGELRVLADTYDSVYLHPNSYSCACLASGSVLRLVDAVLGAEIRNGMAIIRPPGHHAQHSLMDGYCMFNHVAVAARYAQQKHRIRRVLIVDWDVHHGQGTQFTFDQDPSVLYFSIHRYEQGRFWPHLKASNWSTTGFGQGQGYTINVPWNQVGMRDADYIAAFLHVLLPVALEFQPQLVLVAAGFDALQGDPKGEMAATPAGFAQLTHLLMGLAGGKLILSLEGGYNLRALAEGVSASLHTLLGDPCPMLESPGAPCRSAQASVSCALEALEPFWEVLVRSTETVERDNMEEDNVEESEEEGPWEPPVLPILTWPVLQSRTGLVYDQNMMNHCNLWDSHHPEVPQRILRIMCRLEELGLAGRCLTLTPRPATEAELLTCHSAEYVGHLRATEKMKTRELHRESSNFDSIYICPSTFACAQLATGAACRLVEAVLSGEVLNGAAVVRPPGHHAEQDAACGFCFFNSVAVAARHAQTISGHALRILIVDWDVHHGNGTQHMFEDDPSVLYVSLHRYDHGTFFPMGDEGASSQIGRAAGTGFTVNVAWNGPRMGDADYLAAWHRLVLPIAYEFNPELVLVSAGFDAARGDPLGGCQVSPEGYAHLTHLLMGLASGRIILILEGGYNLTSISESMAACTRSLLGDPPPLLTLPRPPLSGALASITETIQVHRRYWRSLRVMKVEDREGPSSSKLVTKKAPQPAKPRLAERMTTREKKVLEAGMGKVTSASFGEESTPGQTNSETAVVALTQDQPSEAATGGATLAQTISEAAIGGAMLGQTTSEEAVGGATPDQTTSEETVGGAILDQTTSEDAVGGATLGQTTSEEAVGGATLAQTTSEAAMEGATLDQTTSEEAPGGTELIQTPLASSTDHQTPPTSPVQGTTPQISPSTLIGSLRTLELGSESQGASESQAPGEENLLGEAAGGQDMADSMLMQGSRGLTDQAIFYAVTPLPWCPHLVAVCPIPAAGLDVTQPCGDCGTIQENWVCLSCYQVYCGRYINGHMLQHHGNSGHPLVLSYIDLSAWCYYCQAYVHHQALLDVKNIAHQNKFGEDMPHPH
Briefly: HDAC6 degradation rescue experiment with PROTAC B4 (62) in MCF-7 cells (western blot). Format: cell-based. Also on record: endogenous in cells; host or cells: MCF-7. The following applies: 20 μM pretreatment 30 min, then 62 (1 or 10 μM) 6 h.

Another assay has as its target T3, Sirt5 (Homo sapiens, UniProt Q9NXA8).
T3 sequence (Q9NXA8 37-310): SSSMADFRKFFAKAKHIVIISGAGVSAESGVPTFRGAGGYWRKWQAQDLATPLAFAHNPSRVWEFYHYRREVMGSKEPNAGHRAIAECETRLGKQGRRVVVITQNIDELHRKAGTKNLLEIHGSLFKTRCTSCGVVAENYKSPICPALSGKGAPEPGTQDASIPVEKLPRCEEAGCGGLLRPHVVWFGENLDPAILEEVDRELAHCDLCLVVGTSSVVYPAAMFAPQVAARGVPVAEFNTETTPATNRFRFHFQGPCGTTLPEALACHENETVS
Briefly: Sirt5 in vitro deacylation HPLC assay. Format: biochemical.

A further assay addresses HDAC8 (Homo sapiens, UniProt Q9BY41). The assay can be described thus: HDAC8 in vitro deacylation assay (ZMTFAL). Format: biochemical.
The target in another assay is HDAC9 (Homo sapiens, UniProt Q9UKV0). Briefly: HDAC9 continuous fluorescence deacylation assay. It counts as biochemical.
HDAC9, sequence (Q9UKV0 whole entry, species assumed): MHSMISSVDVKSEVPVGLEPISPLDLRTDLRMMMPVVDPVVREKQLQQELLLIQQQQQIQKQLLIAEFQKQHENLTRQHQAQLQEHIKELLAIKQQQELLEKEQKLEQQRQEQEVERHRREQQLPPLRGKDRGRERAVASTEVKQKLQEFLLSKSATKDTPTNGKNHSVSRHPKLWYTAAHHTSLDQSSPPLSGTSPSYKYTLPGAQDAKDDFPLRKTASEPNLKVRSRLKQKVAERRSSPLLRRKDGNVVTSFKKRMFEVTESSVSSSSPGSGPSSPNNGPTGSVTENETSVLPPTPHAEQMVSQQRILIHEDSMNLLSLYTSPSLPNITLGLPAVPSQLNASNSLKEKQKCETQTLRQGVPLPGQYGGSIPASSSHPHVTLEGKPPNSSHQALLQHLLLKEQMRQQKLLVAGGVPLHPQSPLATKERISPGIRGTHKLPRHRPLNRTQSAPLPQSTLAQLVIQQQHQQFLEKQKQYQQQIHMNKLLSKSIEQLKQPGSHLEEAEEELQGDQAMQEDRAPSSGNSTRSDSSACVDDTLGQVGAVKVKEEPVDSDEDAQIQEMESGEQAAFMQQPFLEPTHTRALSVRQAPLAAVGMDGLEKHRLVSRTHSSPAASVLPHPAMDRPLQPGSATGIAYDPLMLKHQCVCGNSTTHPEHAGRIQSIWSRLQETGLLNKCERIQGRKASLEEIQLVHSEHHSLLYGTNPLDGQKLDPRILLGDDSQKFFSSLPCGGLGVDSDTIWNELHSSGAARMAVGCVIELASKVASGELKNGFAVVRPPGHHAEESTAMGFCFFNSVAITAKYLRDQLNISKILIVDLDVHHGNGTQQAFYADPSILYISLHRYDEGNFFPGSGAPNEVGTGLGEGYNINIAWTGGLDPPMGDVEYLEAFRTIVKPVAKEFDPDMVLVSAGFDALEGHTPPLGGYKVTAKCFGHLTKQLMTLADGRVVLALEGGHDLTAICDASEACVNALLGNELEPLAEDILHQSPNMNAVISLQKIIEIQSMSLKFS
Assay [1] has as its system histone H3 acetylation (marker of HDAC1-3 inhibition). Briefly: Western blot on histone H3 hyperacetylation in MCF-7 cells. It counts as cell-based. The following applies: 24 h, 10 µM. As to the method: Western blots on histone H3 hyperacetylation in MCF-7 cells were performed according to a previously published protocol.[72] In brief, MCF-7 were centrifuged (450g, 4 min, 22 °C) and lysed with cell extraction buffer (Thermo Fisher), supplemented with 0.1 mM PMSF, Halt Protease Inhibitor (Thermo Fisher), and Natriumorthovanadat (Thermo Fisher). Precast gels with a polymerization degree of 4–15% were used (Mini-PROTEAN TGX Stain-Free; Bio-Rad Laboratories GmbH, Munich, Germany). Proteins were transferred to Trans-Blot Turbo-PVDF membrane (Bio-Rad). The membrane was blocked with skimmed milk powder in Tris-buffered saline-Tween 20 (with 0.2% Tween 20) for 60 min, followed by three washing cycles of 10 min using Tris-buffered saline-Tween 20. Afterward, membranes were incubated with primary antibodies for ac.-Histon H3 (Cell Signal, rabbit) and GAPDH (Gene Tex, Irvine, USA, mouse) for a total of 60 min at room temperature and then incubated at 4 °C overnight. […] After rinsing of the secondary antibody, membranes were detected using ClarityECL Western Blotting Substrate (Bio-Rad). For quantitative determination, the StainFree technique was employed (Bio-Rad), as well as normalization, against the housekeeping protein GAPDH, which allows the imaging of whole lysates in SDS-PAGE before blotting and normalization against the total protein. […]

The target in the next assay is Sirt6 (Homo sapiens, UniProt Q8N6T7). Briefly: Sirt6 in vitro deacylation HPLC assay. It counts as biochemical.
Sirt6, sequence (Q8N6T7 whole entry, species assumed): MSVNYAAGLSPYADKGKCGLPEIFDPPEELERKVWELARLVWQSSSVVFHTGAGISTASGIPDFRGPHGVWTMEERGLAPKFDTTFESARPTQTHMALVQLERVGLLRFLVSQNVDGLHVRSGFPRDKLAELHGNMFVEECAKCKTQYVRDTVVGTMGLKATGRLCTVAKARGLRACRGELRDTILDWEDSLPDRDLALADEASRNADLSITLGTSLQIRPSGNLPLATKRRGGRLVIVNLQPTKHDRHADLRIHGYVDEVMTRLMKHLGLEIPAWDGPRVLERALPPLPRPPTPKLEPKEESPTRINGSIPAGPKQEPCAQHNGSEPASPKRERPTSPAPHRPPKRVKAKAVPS
The next assay addresses HDAC4 (Homo sapiens, UniProt P56524). Briefly: HDAC4 continuous fluorescence deacylation assay. Format: biochemical.

Each structure is given as a SMILES string.

HDAC4, sequence (P56524 whole entry, species assumed): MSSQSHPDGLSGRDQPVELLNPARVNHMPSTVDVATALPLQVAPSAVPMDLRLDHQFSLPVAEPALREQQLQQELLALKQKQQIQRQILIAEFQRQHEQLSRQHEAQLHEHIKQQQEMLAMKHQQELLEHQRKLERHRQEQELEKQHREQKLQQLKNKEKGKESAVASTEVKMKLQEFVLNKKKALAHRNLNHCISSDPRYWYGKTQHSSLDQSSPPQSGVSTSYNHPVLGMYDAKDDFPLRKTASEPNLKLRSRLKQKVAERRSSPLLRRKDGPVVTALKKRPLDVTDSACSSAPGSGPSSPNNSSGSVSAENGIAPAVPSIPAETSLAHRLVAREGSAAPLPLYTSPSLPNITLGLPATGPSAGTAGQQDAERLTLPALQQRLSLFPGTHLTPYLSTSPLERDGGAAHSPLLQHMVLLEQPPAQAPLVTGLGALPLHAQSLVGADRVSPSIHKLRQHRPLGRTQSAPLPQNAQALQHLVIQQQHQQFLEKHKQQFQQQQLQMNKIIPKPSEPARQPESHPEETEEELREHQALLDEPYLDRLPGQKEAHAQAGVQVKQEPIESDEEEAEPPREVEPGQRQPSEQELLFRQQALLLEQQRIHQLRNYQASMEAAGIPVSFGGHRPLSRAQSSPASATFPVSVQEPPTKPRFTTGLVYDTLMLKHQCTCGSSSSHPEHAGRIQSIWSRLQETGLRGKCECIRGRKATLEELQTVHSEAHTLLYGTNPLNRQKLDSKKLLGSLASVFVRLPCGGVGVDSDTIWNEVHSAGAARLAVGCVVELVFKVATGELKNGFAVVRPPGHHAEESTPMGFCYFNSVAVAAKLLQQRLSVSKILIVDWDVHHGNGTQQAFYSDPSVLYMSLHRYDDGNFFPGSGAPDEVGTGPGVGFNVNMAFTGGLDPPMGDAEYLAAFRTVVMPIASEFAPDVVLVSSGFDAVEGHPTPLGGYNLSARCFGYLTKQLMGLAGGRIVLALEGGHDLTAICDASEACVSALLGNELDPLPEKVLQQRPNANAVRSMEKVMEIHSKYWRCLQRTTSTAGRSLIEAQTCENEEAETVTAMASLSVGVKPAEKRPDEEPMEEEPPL
T1 sequence (Q92769 whole entry): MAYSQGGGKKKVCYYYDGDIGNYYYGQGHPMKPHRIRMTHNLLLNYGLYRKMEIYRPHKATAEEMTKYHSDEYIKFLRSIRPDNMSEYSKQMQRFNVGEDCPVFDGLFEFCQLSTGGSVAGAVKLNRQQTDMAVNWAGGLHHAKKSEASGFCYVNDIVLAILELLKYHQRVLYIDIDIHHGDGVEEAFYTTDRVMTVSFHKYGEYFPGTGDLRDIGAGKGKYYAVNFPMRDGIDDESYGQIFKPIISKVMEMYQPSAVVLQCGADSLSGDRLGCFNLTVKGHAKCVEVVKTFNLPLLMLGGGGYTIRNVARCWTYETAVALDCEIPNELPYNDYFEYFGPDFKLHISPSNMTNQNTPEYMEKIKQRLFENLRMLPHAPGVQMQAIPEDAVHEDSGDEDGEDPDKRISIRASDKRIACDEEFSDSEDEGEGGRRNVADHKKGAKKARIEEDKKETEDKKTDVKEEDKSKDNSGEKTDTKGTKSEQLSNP
HDAC8, sequence (Q9BY41 whole entry, species assumed): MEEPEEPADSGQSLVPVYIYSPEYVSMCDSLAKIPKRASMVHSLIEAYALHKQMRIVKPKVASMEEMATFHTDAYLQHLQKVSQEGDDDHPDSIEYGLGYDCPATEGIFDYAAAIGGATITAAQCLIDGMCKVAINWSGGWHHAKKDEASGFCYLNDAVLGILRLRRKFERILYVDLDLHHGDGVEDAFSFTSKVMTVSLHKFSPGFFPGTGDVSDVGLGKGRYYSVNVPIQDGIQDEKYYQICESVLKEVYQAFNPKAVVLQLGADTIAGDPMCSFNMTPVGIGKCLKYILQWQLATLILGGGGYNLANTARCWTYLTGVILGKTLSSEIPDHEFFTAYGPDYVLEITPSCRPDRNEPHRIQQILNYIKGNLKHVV

For `CCCCN(Cc1ccc(C(=O)NO)cc1)C(=O)CCCCn1cc(COc2cccc(Cc3cnc(NC(=O)CSc4nc(C)cc(C)n4)s3)c2)nn1` [Compound 33, 4-((N-Butyl-5-(4-((3-((2-(2-((4,6-dimethylpyrimidin-2-yl)thio)acetamido)thiazol-5-yl)methyl)phenoxy)methyl)-1H-1,2,3-triazol-1-yl)pentanamido)methyl)-N-hydroxybenzamide], the IC50 on HDAC2 was 6 ± 0.2 µM; on Sirt5, over 500 µM; against HDAC8, 2.94 ± 0.45 µM; on HDAC9, over 20 µM; on Sirt6 it was over 500 µM; against HDAC4, over 20 µM. Also, the “Rescue of HDAC6 from degradation induced by PROTAC 62” value on HDAC6 is listed as “able to rescue HDAC6 from proteasomal degradation induced by 62”. Also, the inhibition at 200 µM on Sirt5 (@ 200 µM, read-out: Sirt5 percentual inhibition) was -2%; at Sirt6 (@ 200 µM, read-out: Sirt6 percentual inhibition) it was 0%. Besides, the inhibition at 500 µM is -1% on Sirt5 (@ 500 µM, read-out: Sirt5 percentual inhibition) and 10% at Sirt6 (@ 500 µM, read-out: Sirt6 percentual inhibition). Further, the inhibition at 6 µM is 17% at HDAC9 (@ 6 µM, read-out: HDAC9 percentual inhibition) and 4% at HDAC4 (@ 6 µM, read-out: HDAC4 percentual inhibition). In addition, the inhibition at 20 µM worked out at 37% on HDAC9 (@ 20 μM, read-out: HDAC9 percentual inhibition) and 7% on HDAC4 (@ 20 μM, read-out: HDAC4 percentual inhibition). The “Histone H3 hyperacetylation (cellular class I HDAC off-target inhibition)” value in assay [1] is listed as “no significant off-target inhibition of class I”.
